Measurements: patent US9101569B2, “Methods for the treatment of insulin resistance” (UNIVERSITE DE GENEVE, priority 2010, dated 2015)

Assays:
Format in all cases: in vivo, rat
[1] = system: HFD-induced obese rats; experiment: Plasma glycerol after subcutaneous OT infusion in HFD-induced obese rats; conditions: peripheral (s.c.) OT 50 nmol/day
Method: Another group of the above male Wistar rats were rendered obese as described above and were subcutaneously infused with saline or OT (NeoMPS®, Strasbourg, France) (50 nmol/day/rat) during 14 days.
(§1) To determine the effect of OT on peripheral metabolism, levels of plasma glucose, insulin, leptin, FFA, glycerol and TG were determined. Plasma glucose was measured by the glucose oxidase method (Glu, Roche Diagnostics GmbH, Rotkreuz, Switzerland). Plasma non-esterified fatty acid (NEFA) and triglyceride (TG) levels were determined using NEFA C and TG enzymatic PAP150 commercial kits from Wako Chemicals GmbH (Neuss, Germany) and Biomérieux (Marcy l'Etoile, France), respectively. Plasma OT levels were determined using an ELISA, as previously described (Pequeux et al., 2001, Scand. J. Clin. Lab. Invest., 61, 407-415). Plasma glycerol levels were measured using the free Glycerol Reagent (Sigma).

[2] = system: HFD-induced obese rats; experiment: Euglycemic-hyperinsulinemic clamps after i.c.v. OT infusion; conditions: 14-day i.c.v. 1.6 nmol/d
Method: Global and tissue-specific glucose utilization rates were measured by performing euglycemic-hyperinsulinemic clamps associated with the labeled 2-deoxyglucose technique as previously described (Vettor et al., 1994, Diabetologia, 37, 1202-1208). HFD-induced obese rats were overnight fasted and intraperitoneally anesthetized with Nembutal (75 mg/kg sodium pentobarbital; Abbott Laboratories, Chicago, Ill.). Total glucose utilization was measured during euglycemic-hyperinsulinemic clamps, as previously described (Vettor et al., 1994, above). At the end of the clamp, the in vivo insulin-stimulated glucose utilization index of individual tissues was determined by injecting a single bolus of labeled 2-deoxy-D-[1-3H]glucose (30 μCi; Amersham Biosciences UK, Little Chalfont, UK), as previously described (Vettor et al., 1994, above). Rats were killed by rapid decapitation, and tissues were rapidly removed, freeze-clamped, and stored at −80° C. Measurement of tissue concentration of 2-deoxy-d-[1-^3H]glucose-6-phosphate allowed calculation (Vettor et al., 1994, above) of the in vivo glucose utilization index of individual tissues and was expressed in ng/mg·min.

[3] = system: HFD-induced obese rats; experiment: Plasma measurements after i.c.v. OT infusion in HFD-induced obese rats
Method: (§2) After three weeks of HFD feeding, rats were submitted to surgical procedures. They were anesthetized with intramuscular injection of ketamine-xylasine (Ketalar®-Rompun®, Parke-Davis and Bayer, Leverkusen, Switzerland) at 40 and 9 mg/kg, respectively, and implanted with a cannula in the right lateral cerebral ventricle fixed on the skull with dental cement, as previously described (Rohner-Jeanrenaud et al., 1989, Endocrinology 124, 733-9). After one week of recovery, the drinking response to i.c.v. injection of Angiotensin II (5 ng/μl) (Novabiochem, Laüfelfingen, Switzerland) was measured to confirm the correct placement of the cannula. At the end of the fifth week of high fat diet feeding, osmotic minipumps (Alzet®, model 2001, Alza Corporation, Cupertino, Calif.) delivering oxytocin (NeoMPS®, Strasbourg, France) or its vehicle (NaCl 0.9%) were subcutaneously implanted and connected to the i.c.v. cannula via a polyethylene catheter, as previously described (Rohner-Jeanrenaud et al., 1989, above). OT was delivered at a dose of 1.6 nmol/day/rat or 16 nmol/day/rat during 14 days. A group of vehicle-infused rats was pair-fed to the amount of food consumed by OT-infused animals in order to assess the effects of OT independently from changes in food intake. The pair-feeding regimen consisted in giving one-third of the daily food amount in the morning and the remaining two-thirds just before onset of darkness. Rats were sacrificed using isoflurane anesthesia (Halocarbon Laboratories, River Edge, N.J.) and rapid decapitation between 09:00 and 13:00 h. Blood samples were collected into EDTA-coated tubes, centrifuged and plasma stored at −20° C. Tissues were rapidly removed, freeze-clamped, and stored at −80° C.
as §1

[4] = as above; conditions: rat, plasma, 1.6 nmol/day/rat; i.c.v. OT 1.6 nmol/d, 14 days; mean ± SEM; read-out: plasma Oxytocin
Method: as §2, §1

[5] = i.c.v. OT 1.6 nmol/d, 14 days, mean ± SEM
[6] = i.c.v. OT 1.6 nmol/d, 14 days, mean ± SEM, listed as Oxytocin

CC[C@H](C)[C@@H]1NC(=O)[C@H](Cc2ccc(O)cc2)NC(=O)[C@@H](N)CSSC[C@@H](C(=O)N2CCC[C@H]2C(=O)N[C@@H](CC(C)C)C(=O)NCC(N)=O)NC(=O)[C@H](CC(N)=O)NC(=O)[C@H](CCC(N)=O)NC1=O [OT, Cys-Tyr-Ile-Gln-Asn-Cys-Pro-Leu-Gly (SEQ ID NO: 1)]
plasma glycerol levels [1]: increased | glucose uptake in epididymal WAT [2]: significant increase | glucose uptake in inguinal WAT [2]: significant increase | glucose infusion rate (GIR) ([2]; compared to saline): significant increases | glucose utilization index, red gastrocnemius ([2]; compared to saline): significant increases | glucose utilization index, red quadriceps ([2]; compared to saline): significant increases | glucose utilization index, soleus ([2]; compared to saline): significant increases | plasma glycerol levels ([3]; central (i.c.v.) OT 1.6 nmol/day): increased | plasma 2-AG [3, 5]: 53 ± 4.9 pmol/mL | plasma AEA [3, 5]: 19 ± 2.3 pmol/mL | plasma FFA [3, 5]: unchanged | plasma Glucose [3, 5]: unchanged | plasma Insulin [3, 5]: unchanged | plasma Leptin [3, 5]: unchanged | plasma OEA [3, 5]: 178 ± 15 pmol/mL | plasma Oxytocin [3, 5]: increased | plasma PEA [3, 5]: 1.63 ± 0.15 nmol/mL | plasma TG [3, 5]: decreased | plasma FFA [3, 6]: 0.70 ± 0.06 mmol/L | plasma Glucose [3, 6]: 159.5 ± 4.1 mg/dL | plasma Insulin [3, 6]: 1.7 ± 0.3 ng/mL | plasma Leptin [3, 6]: 11.3 ± 2.2 ng/mL | plasma TG [3, 6]: 0.80 ± 0.05 mmol/L | level at 336 h [4]: 0.0218 ± 0.0058 ng/mL
